The test system of data set [1] is RAW264.7. The data set can be described thus: Antiinflammatory activity against mouse RAW264.7 cells assessed as inhibition of LPS-induced NO production at 10 uM preincubated for 1 hrs followed by LPS stimulation and measured after 24 hrs by Griess assay relative to control. The data set is classed as functional. The conditions noted are these: time 25 hrs.
The test system of data set [2] is RAW264.7. The data set can be described thus: Inhibition of LPS-induced iNOS protein expression in mouse RAW264.7 cells at 0.5 to 2 uM preincubated for 1 hrs followed by LPS-stimulation and measured after 24 hrs by Western blot analysis. The data set is classed as functional, cell-based. Conditions: dose 0.5-2 µM, time 25.0 hrs. (A western blot detects proteins with antibodies after separation by electrophoresis.)

Data set [3] concerns the target T1, Nitric oxide synthase, inducible (Mus musculus) (UniProt P29477).
T1 sequence (whole entry): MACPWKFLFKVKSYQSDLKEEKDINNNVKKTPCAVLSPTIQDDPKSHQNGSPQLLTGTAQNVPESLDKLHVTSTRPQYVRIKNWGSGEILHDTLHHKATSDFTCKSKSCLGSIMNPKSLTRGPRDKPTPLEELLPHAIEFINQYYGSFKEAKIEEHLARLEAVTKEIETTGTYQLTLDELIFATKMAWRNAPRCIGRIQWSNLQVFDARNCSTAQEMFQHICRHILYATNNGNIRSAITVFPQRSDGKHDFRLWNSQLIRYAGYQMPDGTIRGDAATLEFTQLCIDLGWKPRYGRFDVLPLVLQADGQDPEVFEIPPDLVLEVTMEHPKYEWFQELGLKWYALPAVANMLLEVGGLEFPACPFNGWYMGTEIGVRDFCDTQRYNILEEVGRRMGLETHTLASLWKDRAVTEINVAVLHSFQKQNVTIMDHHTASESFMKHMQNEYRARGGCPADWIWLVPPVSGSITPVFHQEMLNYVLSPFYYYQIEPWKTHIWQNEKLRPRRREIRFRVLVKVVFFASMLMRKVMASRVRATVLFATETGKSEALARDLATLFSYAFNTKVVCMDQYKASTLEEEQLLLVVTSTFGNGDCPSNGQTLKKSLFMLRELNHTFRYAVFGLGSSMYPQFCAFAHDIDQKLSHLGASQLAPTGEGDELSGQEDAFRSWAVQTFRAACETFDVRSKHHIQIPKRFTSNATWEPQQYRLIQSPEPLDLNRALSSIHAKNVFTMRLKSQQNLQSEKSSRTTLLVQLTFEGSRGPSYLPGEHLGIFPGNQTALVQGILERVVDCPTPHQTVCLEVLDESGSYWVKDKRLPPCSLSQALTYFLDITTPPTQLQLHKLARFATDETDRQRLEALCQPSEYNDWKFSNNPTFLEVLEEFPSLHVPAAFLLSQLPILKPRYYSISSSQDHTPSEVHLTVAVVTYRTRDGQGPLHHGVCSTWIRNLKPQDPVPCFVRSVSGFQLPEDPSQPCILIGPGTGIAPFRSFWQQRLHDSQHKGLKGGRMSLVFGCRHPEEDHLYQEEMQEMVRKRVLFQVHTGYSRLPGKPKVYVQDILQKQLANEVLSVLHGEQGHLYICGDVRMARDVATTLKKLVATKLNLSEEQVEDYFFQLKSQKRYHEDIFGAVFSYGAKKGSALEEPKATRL
Nature of the data set: Inhibition of iNOS dimer formation in LPS-induced mouse RAW264.7 cells at 0.5 to 2 uM preincubated for 1 hrs followed by LPS-stimulation and measured after 24 hrs by Westernblot analysis. Conditions: dose 0.5-2 µM, time 25.0 hrs.

Data set [4] is described as follows: Metabolic stability in human hepatocytes assessed as half life measured upto 120 mins by LC-MS/MS analysis. The format is ADME, cell-based, Hepatocyte.
The nature of data set [5]: Metabolic stability in human hepatocytes assessed as clearance incubated up to 120 mins measured per million cells by LC-MS/MS analysis. The format is ADME, cell-based, Hepatocyte. Conditions: read-out: CLH.
Data set [6] can be described thus: Metabolic stability in rat hepatocytes assessed as parent compound remaining after 120 mins by LC-MS/MS analysis. The data set is classed as ADME, cell-based, Hepatocyte. The conditions noted are these: read-out: Stabilty.
In another data set the target is Cytochrome P450 2C9 (Homo sapiens, UniProt P11712). Nature of the data set: Inhibition of CYP2C9 in human liver microsomes using Diclofenac as substrate measured after 20 mins by LC-MS/MS analysis. The data set is classed as ADME.
Data set [7] in a line: Tmax in Sprague-Dawley rat at 10 mg/kg, po measured after 0.25 to 24 hrs by LC-MS/MS analysis. The format is ADME, organism-based. Conditions: in vivo, time 0.25-24 hrs.
Data set [8] can be described thus: AUC (0 to infinity) in Sprague-Dawley rat at 1 mg/kg, iv measured by LC-MS analysis. The arrangement: time infinity, route intravenous, dose 1 mg/kg. The data set is classed as ADME, organism-based. Conditions: in vivo.
Data set [9] can be described thus: Cmax in Sprague-Dawley rat at 10 mg/kg, po measured after 0.25 to 24 hrs by LC-MS/MS analysis. The data set is classed as ADME, organism-based. The arrangement: route oral, time lower 0.25 hrs, dose 10 mg/kg, time upper 24 hrs. Conditions: in vivo.
A short description of data set [10]: Volume of distribution at steady state in Sprague-Dawley rat at 1 mg/kg, iv measured after 0.08 to 24 hrs by LC-MS/MS analysis. The data set is classed as ADME, organism-based. The conditions noted are these: in vivo, time 0.08-24 hrs, read-out: Vdss.
The nature of data set [11]: Oral bioavailability in Sprague-Dawley rat at 10 mg/kg measured after 0.25 to 24 hrs hrs by LC-MS/MS analysis. The format is ADME, organism-based. Conditions: in vivo, time 0.25-24 hrs.
The nature of data set [12]: Subacute toxicity in rat assessed as change in body weight at 100 to 500 mg/kg, IG administered every other day for 14 days and measured every 2 days. The data set is classed as organism-based. The conditions noted are these: in vivo, po, 336 h, dose 100-500 mg/kg, time 14 day.
The nature of data set [13]: Acute toxicity in rat assessed as liver necrosis at 200 to 500 mg/kg measured after 7 days by H and E staining based assay. The data set is classed as organism-based. The conditions noted are these: in vivo, 168 h, dose 200-500 mg/kg, time 7 day.
A short description of data set [14]: Acute toxicity in rat assessed as drowsiness at 2000 mg/kg, IG administered as single dose. The data set is classed as organism-based. The conditions noted are these: in vivo, po.
Data set [15] in a line: Acute toxicity in rat assessed as weight loss at 2000 mg/kg, IG administered as single dose. The format is organism-based. The conditions noted are these: in vivo, po.
The nature of data set [16]: Acute toxicity in rat assessed as anorexia at 2000 mg/kg, IG administered as single dose. The data set is classed as organism-based. The conditions noted are these: in vivo, po.
The nature of data set [17]: Subacute toxicity in rat assessed as spleen damage at 100 to 500 mg/kg, IG administered every other day for 14 days and measured every 2 days by H and E staining. The data set is classed as organism-based. The conditions noted are these: in vivo, po, 336 h, dose 100-500 mg/kg, time 14 day.
Data set [18] is described as follows: Subacute toxicity in rat assessed as lung damage at 100 to 500 mg/kg, IG administered every other day for 14 days and measured every 2 days by H and E staining. The format is organism-based. Conditions: in vivo, po, 336 h, dose 100-500 mg/kg, time 14 day.
Data set [19] can be described thus: Subacute toxicity in rat assessed as drowsiness at 100 to 500 mg/kg, IG administered every other day for 14 days and measured every 2 days. The conditions noted are these: in vivo, po, 336 h, dose 100-500 mg/kg, time 14 day. The format is organism-based.
Data set [20] is described as follows: Subacute toxicity in rat assessed as fur wrinkles at 100 to 500 mg/kg, IG administered every other day for 14 days and measured every 2 days. The data set is classed as organism-based. Conditions: in vivo, po, 336 h, dose 100-500 mg/kg, time 14 day.

The structures appear in SMILES notation. Activity calls are given as the source filed them.

Chain of Cytochrome P450 2C9 (P11712 whole entry): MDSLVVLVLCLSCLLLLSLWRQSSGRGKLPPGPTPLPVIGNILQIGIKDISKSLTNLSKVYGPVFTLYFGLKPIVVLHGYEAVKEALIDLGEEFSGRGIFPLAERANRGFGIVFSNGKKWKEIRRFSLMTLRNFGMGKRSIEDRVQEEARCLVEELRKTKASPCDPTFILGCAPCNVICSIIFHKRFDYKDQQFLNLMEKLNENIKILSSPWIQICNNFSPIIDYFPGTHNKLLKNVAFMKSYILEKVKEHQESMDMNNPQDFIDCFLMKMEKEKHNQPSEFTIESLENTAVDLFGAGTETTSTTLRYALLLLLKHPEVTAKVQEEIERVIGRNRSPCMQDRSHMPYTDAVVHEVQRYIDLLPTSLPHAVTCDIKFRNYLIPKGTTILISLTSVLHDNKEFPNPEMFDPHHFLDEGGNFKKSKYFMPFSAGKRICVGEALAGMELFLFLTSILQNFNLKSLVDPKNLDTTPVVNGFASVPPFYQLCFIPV

For `COc1cc(/C=C/c2nc(NCc3ccc(C)cc3)c3sccc3n2)cc(OC)c1OC`, in the data set with RAW264.7 [1], the inhibition at 10 µM is 98.3%. Also, the inhibition result with RAW264.7 [2] was “inactive”. For the same molecule, the inhibition result in [3] was “Active”. For the same molecule, the half-life in data set [4] was 5.44 h. Besides, the hepatocyte CLint in data set [5] came out at 2.1 µL/min/1e6 cells. The remaining at 2 h in data set [6] was 22.2%. On Cytochrome P450 2C9, inhibition was half-maximal at 8.91 µM (IC50). Further, the time to peak (Tmax) in [7] was found to be 3.33 h. Further, the AUC(0-inf) in data set [8] amounted to 401 ng·h/mL. Moreover, in data set [9], the concentration peaked (Cmax) at 131 ng/mL. Also, in data set [10], the Vd was 11.3 L/kg. In [11], this molecule came in with a bioavailability of 29.9%. Moreover, the Activity result is listed as “Toxic” in data set [12]; “Toxic” in data set [13]; “Non-Toxic” in data set [14]; “Non-Toxic” in [15]; “Non-Toxic” in [16]; “Non-Toxic” in data set [17]. Moreover, the Activity entry in data set [18], in data set [19] and in [20] was “Non-Toxic” in each case.

By inhibition is commonly meant the change of the read-out against control, counted positive when it falls. Broadly, the half-life is the time needed for the level to fall by half in the phase considered. A word on the IC50: it is the concentration that inhibits the measured activity by half. A low value points to greater potency. The term Tmax denotes the time at which the peak concentration occurs. The AUC(0-inf) is total exposure, with the tail of the curve extrapolated. A lower AUC(0-inf) goes with low exposure. The term Cmax denotes the highest concentration seen after dosing. In general, bioavailability refers to the share of a dose that reaches the circulation, judged against a reference dose that is usually intravenous. Read a high bioavailability as much systemic uptake.

The values above are taken from ChEMBL document CHEMBL4813945, “Discovery and development of novel pyrimidine and pyrazolo/thieno-fused pyrimidine derivatives as potent and orally active inducible nitric oxide synthase dimerization inhibitor with efficacy for arthritis” (Eur J Med Chem, 2021).
